Experimental data reported in patent US20070149404A1, “Microbicidal compositions” (BASF AKTIENGESELLSCHAFT, priority 2003, published 2007).

How the values were obtained:
[1] = Solubility in water at room temperature
Aspergillus niger = test: Intrinsic activity, microtitre plate method, AN; type: cell-based; design: key: rating 0 = no activity to 5 = biostatic, may be biocide
Experimental: (§1) The chemistries were tested for their activity against a range of organisms via a microtitre plate method. The test organisms were: • ML—Micrococcus luteus • SA—Staphylococcus aureus • EC—Escherichia coli • PA—Pseudomonas aeruginosa • CF—Citrobacter freundii • PM—Proteus mirabilis • CA—Candida albicans • SC—Saccharomyces cerevisiae • AN—Aspergillus niger • PF—Penicillium funiculosum • AA—Alternaria alternata
(§2) Using the following rating scale: • 0=no activity • 1=minimal inhibition • 2=inhibition • 3=clear inhibition • 4=clear inhibition biostatic, may be biocide activity • 5=biostatic, may be biocide activity
(§3) Readings of 4 and possibly 3 were considered to be valid for biocidal applications.

Saccharomyces cerevisiae = test: Intrinsic activity, microtitre plate method, SC; type: cell-based; design: key: rating 0 = no activity to 5 = biostatic, may be biocide
Experimental: as §1, §2, §3

fungi [2] = test: Efficacy against fungal growth on painted plaster surface (BS3900 G6); type: cell-based; details: 0.5% in paint; for MEAN FUNGAL GROWTH RATING - PLASTER SUBSTRATE 28 days leached / MEAN FUNGAL GROWTH RATING - PLASTER SUBSTRATE 56 days leached: constant running water for 72 hours; for MEAN FUNGAL GROWTH RATING - PLASTER SUBSTRATE 28 days leached / MEAN FUNGAL GROWTH RATING - PLASTER SUBSTRATE 56 days leached / MEAN FUNGAL GROWTH RATING - PLASTER SUBSTRATE 28 days as applied / MEAN FUNGAL GROWTH RATING - PLASTER SUBSTRATE 56 days as applied: mean of ratings 0-5; for % Improved After 56 days leached (fungal, plaster): leached 72 hours; for % Improved After 56 days leached (fungal, plaster) / % Improved After 56 days as applied (fungal, plaster): versus unpreserved paint; for MEAN FUNGAL GROWTH RATING - PLASTER SUBSTRATE 28 days as applied / MEAN FUNGAL GROWTH RATING - PLASTER SUBSTRATE 56 days as applied: no leaching with water; for % Improved After 56 days as applied (fungal, plaster): no leaching
Experimental: Testing was performed according to the BS3900 G6 and BBA MOAT 33 methods for evaluation versus fungi and algae, respectively. The methods involve painting a substrate panel with the coating and leaching under running water for 72 hours. […] Performance is judged by comparing with suitable control samples ie without biocide, a positive control and for fungi with substrate panels that have not been leached.
(§4) Performance rating on painted test substrates (Score of 0, 1 and 2 is considered as a pass) • 0=no growth • 1=trace of growth • 2=growth on 1-10% of test face • 3=growth on 10-30% of test face • 4=growth on 30-70% of test face
(§5) 5=growth on 70-100% of test face.

Fungi [3] = test: Intrinsic activity, microtitre plate method, mean score over fungi; type: cell-based, CA, SC, AN, PF, AA; details: performance against organisms/no of organisms, 0 to <3 poor, >3 inhibition, >4 biostasis, biocidal activity
Experimental: as §1, §2, §3

Candida albicans = test: Intrinsic activity, microtitre plate method, CA; type: cell-based; design: key: rating 0 = no activity to 5 = biostatic, may be biocide
Experimental: as §1, §2, §3

Staphylococcus aureus = test: Intrinsic activity, microtitre plate method, SA; type: cell-based; design: key: 0 = no activity to 5 = biostatic, may be biocide activity
Experimental: as §1, §2, §3

algae = test: Efficacy against algal growth on painted plaster surface (BBA MOAT 33); type: cell-based; details: 0.5% in paint; for MEAN ALGAL GROWTH RATING 28 days / MEAN ALGAL GROWTH RATING 56 days / % Improved after 56 days (algal growth): painted plaster; for MEAN ALGAL GROWTH RATING 28 days / MEAN ALGAL GROWTH RATING 56 days: leached 72 hours, mean of ratings 0-5; for MEAN ALGAL GROWTH RATING 28 days: 28 days after inoculation; for MEAN ALGAL GROWTH RATING 56 days: 56 days after inoculation; for % Improved after 56 days (algal growth): versus unpreserved paint
Experimental: (§6) Testing was performed according to the BS3900 G6 and BBA MOAT 33 methods for evaluation versus fungi and algae, respectively. The methods involve painting a substrate panel with the coating and leaching under running water for 72 hours. The substrates are incubated for 56 days after being inoculated with fungi or algae. Performance is judged by comparing with suitable control samples ie without biocide, a positive control and for fungi with substrate panels that have not been leached.
as §4, §5

Citrobacter freundii = test: Intrinsic activity, microtitre plate method, CF; type: cell-based; design: key: rating 0 = no activity to 5 = biostatic, may be biocide
Experimental: as §1, §2, §3

Escherichia coli = test: Intrinsic activity, microtitre plate method, EC; type: cell-based; design: key: rating 0 = no activity to 5 = biostatic, may be biocide
Experimental: as §1, §2, §3

test bacteria and fungi = test: Intrinsic activity against bacteria and fungi, microtitre plate method, summary in words; type: cell-based; details: at both concentrations (1000 and 500 ppm a.i.)
Experimental: as §1, §2, §3

fungi [4] = test: Efficacy against fungal growth on painted wooden surface (BS3900 G6); type: cell-based; details: 0.5% in paint
Experimental: as §6, §4, §5

Bacteria = test: Intrinsic activity, microtitre plate method, mean score over bacteria; type: cell-based, ML, SA, EC, PA, CF, PM; details: performance against organisms/no of organisms, 0 to <3 poor, >3 inhibition, >4 biostasis, biocidal activity
Experimental: as §1, §2, §3

Pseudomonas aeruginosa = test: Intrinsic activity, microtitre plate method, PA; type: cell-based; design: key: rating 0 = no activity to 5 = biostatic, may be biocide
Experimental: as §1, §2, §3

Penicillium funiculosum = test: Intrinsic activity, microtitre plate method, PF; type: cell-based; design: key: rating 0 = no activity to 5 = biostatic, may be biocide
Experimental: as §1, §2, §3

Alternaria alternata = test: Intrinsic activity, microtitre plate method, AA; type: cell-based; design: key: rating 0 = no activity to 5 = biostatic, may be biocide
Experimental: as §1, §2, §3

Micrococcus luteus = test: Intrinsic activity, microtitre plate method, ML; type: cell-based; design: key: rating 0 = no activity to 5 = biostatic, may be biocide
Experimental: as §1, §2, §3

Proteus mirabilis = test: Intrinsic activity, microtitre plate method, PM; type: cell-based; design: key: rating 0 = no activity to 5 = biostatic, may be biocide
Experimental: as §1, §2, §3

Molecule | Aq. Solubility (ppm) [1] [ppm] | AN rating (Aspergillus niger; 500 ppm a.i.) | AN rating (Aspergillus niger; 1000 ppm a.i.) | SC rating (Saccharomyces cerevisiae; 500 ppm a.i.) | SC rating (Saccharomyces cerevisiae; 1000 ppm a.i.) | MEAN FUNGAL GROWTH RATING - PLASTER SUBSTRATE 28 days leached (fungi [2]) | MEAN FUNGAL GROWTH RATING - PLASTER SUBSTRATE 56 days leached (fungi [2]) | % Improved After 56 days leached (fungal, plaster) (fungi [2]) [%] | MEAN FUNGAL GROWTH RATING - PLASTER SUBSTRATE 28 days as applied (fungi [2]) | MEAN FUNGAL GROWTH RATING - PLASTER SUBSTRATE 56 days as applied (fungi [2]) | % Improved After 56 days as applied (fungal, plaster) (fungi [2]) [%] | Fungi Mean Score (Fungi [3]; 500 ppm a.i.) | Fungi Mean Score (Fungi [3]; 1000 ppm a.i.) | CA rating (Candida albicans; 500 ppm a.i.) | CA rating (Candida albicans; 1000 ppm a.i.) | SA rating (Staphylococcus aureus; 500 ppm a.i.) | SA rating (Staphylococcus aureus; 1000 ppm a.i.) | MEAN ALGAL GROWTH RATING 28 days (algae) | MEAN ALGAL GROWTH RATING 56 days (algae) | % Improved after 56 days (algal growth) (algae) [%] | other results
Metiram | 2.7 | – | – | – | – | – | – | – | – | – | – | – | – | – | – | – | – | – | – | – | –
CC(Cc1ccc(C(C)(C)C)cc1)CN1C[C@@H](C)O[C@@H](C)C1 (stereo partly drawn) [Fenpropimorph, 4-[2-Methyl-3-(p-tert.butyl-phenyl)-propyl]-2,6-cis-dimethylmorpholin] | – | 5 | 5 | 5 | 5 | 3 (3=growth on 10-30% of test face) | 3 (3=growth on 10-30% of test face) | 14 | 4 (4=growth on 30-70% of test face) | 4 (4=growth on 30-70% of test face) | 20 | 5.0 | 5.0 | 5 | 5 | 0 | 0 | 2 (2=growth on 1-10% of test face) | 3 (3=growth on 10-30% of test face) | 25.0 | Improvement against fungal growth on the plaster surface (fungi [2]; as applied or after leaching): exhibited an improvement; Improvement against algal growth on the plaster surface (algae): exhibited an improvement; CF rating (Citrobacter freundii; 500 ppm a.i.): 0; CF rating (Citrobacter freundii; 1000 ppm a.i.): 0; EC rating (Escherichia coli; 500 ppm a.i.): 0; EC rating (Escherichia coli; 1000 ppm a.i.): 0; Spectrum of activity (test bacteria and fungi): only display antifungal activity; Improvement against fungal growth on the wood surface (fungi [4]): only showed marginal improvement; Bacteria Mean Score (Bacteria; 500 ppm a.i.): 0.0; Bacteria Mean Score (Bacteria; 1000 ppm a.i.): 0.3; PA rating (Pseudomonas aeruginosa; 500 ppm a.i.): 0; PA rating (Pseudomonas aeruginosa; 1000 ppm a.i.): 0; PF rating (Penicillium funiculosum; 500 ppm a.i.): 5; PF rating (Penicillium funiculosum; 1000 ppm a.i.): 5; AA rating (Alternaria alternata; 500 ppm a.i.): 5; AA rating (Alternaria alternata; 1000 ppm a.i.): 5; ML rating (Micrococcus luteus; 500 ppm a.i.): 0; ML rating (Micrococcus luteus; 1000 ppm a.i.): 2; PM rating (Proteus mirabilis; 500 ppm a.i.): 0; PM rating (Proteus mirabilis; 1000 ppm a.i.): 0
O=C(Nc1ccc(F)cc1)c1cccc(Oc2cccc(C(F)(F)F)c2)n1 [Picolinafen] | 0.004 | – | – | – | – | 3 (3=growth on 10-30% of test face) | 3.5 | 0 | 4.5 | 5 (5=growth on 70-100% of test face) | 0 | – | – | – | – | – | – | 1.5 | 2.5 | 37.5 | Improvement against algal growth on the plaster surface (algae): exhibited an improvement; Improvement against fungal growth on the wood surface (fungi [4]): only showed marginal improvement
O=C(O)COc1ccc(Cl)cc1Cl [2,4-D, 2,4-Dichlorphenoxy acetic acid] | 600 | 0 | 5 | 1 | 3 | – | – | – | – | – | – | 2.8 | 4.6 | 5 | 5 | 3 | 3 | – | – | – | CF rating (Citrobacter freundii; 500 ppm a.i.): 0; CF rating (Citrobacter freundii; 1000 ppm a.i.): 5; EC rating (Escherichia coli; 500 ppm a.i.): 0; EC rating (Escherichia coli; 1000 ppm a.i.): 3; Bacteria Mean Score (Bacteria; 500 ppm a.i.): 1.0; Bacteria Mean Score (Bacteria; 1000 ppm a.i.): 3.5; PA rating (Pseudomonas aeruginosa; 500 ppm a.i.): 0; PA rating (Pseudomonas aeruginosa; 1000 ppm a.i.): 3; PF rating (Penicillium funiculosum; 500 ppm a.i.): 3; PF rating (Penicillium funiculosum; 1000 ppm a.i.): 5; AA rating (Alternaria alternata; 500 ppm a.i.): 5; AA rating (Alternaria alternata; 1000 ppm a.i.): 5; ML rating (Micrococcus luteus; 500 ppm a.i.): 2; ML rating (Micrococcus luteus; 1000 ppm a.i.): 5; PM rating (Proteus mirabilis; 500 ppm a.i.): 1; PM rating (Proteus mirabilis; 1000 ppm a.i.): 2
